“And” between values parts separate entries of the source, which are not always exact repeats. Identical values can stand only once. Like-named read-outs stand apart in the source and are kept apart here.
Assays:
MetRS (T. brucei) = MetRS (T. brucei) (Trypanosoma brucei brucei, UniProt Q38C91); experiment: MetRS (T. brucei) ATP depletion assay using Kinase-Glo; format: biochemical
MetRS (S. aureus) = MetRS (S. aureus) (Staphylococcus aureus, UniProt Q5HII6); experiment: biochemical; details: ATP depletion, Kinase-Glo; read-out: H) MetRS (S. aureus) ATP depletion assay using Kinase-Glo with modified cpd dilution method, IC50
Sequence of MetRS (S. aureus) (Q5HII6 whole entry): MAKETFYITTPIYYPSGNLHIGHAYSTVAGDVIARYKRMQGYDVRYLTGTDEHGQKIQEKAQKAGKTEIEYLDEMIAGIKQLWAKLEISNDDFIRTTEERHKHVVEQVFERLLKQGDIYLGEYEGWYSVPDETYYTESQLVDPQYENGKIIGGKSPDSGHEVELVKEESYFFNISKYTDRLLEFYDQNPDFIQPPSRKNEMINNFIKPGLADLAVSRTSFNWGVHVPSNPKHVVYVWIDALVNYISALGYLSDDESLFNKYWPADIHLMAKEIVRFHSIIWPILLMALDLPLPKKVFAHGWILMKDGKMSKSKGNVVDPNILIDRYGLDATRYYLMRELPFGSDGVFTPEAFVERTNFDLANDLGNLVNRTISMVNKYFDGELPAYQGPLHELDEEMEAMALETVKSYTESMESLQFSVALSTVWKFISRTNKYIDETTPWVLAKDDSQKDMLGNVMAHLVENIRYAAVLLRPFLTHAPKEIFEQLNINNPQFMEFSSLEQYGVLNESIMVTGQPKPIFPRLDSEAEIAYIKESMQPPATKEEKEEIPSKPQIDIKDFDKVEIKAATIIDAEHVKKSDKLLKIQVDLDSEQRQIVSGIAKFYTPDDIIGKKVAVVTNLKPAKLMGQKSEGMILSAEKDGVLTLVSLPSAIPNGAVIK

T. brucei = experiment: Growth inhibition assay of T. brucei cell cultures (Alamar Blue, 48 h); format: cell-based
[1] = Trypanosoma brucei; read-out: B) T. brucei EC50

Sequence of MetRS (T. brucei) (Q38C91 entry or part of it): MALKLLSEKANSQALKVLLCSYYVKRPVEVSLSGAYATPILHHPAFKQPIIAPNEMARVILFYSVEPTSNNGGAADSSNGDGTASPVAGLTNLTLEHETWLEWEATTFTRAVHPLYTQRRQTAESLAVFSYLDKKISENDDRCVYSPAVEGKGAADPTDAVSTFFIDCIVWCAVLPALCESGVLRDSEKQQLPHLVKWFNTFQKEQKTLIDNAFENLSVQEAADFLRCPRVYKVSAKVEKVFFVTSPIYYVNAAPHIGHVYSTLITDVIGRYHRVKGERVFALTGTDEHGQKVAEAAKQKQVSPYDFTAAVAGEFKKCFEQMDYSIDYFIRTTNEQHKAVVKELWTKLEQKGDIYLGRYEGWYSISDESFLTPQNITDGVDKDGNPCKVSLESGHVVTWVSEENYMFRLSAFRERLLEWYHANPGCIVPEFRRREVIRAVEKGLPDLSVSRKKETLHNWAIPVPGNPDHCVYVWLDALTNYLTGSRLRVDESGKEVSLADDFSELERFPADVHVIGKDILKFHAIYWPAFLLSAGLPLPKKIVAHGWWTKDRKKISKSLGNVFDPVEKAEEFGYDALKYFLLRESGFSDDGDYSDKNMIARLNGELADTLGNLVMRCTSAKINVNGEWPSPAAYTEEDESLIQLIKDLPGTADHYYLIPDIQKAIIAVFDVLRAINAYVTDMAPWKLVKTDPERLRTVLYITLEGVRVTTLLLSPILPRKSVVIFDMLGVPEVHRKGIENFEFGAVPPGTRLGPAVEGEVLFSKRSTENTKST

## COc1ccc(Oc2cc(NCc3nc4ccccc4[nH]3)ccn2)c(Cl)c1 [Compound 1950, N-(1H-1,3-benzodiazol-2-ylmethyl)-2-(2-chloro-4-methoxyphenoxy)pyridin-4-amine]
MetRS (T. brucei)
  IC50: 50 nM
MetRS (S. aureus)
  IC50: 797 nM

## Clc1ccc2[nH]c(N3CCC[C@H](NCc4cc(Br)cc(Br)c4)C3)nc2n1 [Compound 1908, (S)-1-(5-chloro-1H-imidazo[4,5-b]pyridin-2-yl)-N-(3,5-dibromobenzyl) piperidin-3-amine]
MetRS (T. brucei)
  IC50: 15 nM
T. brucei; [1]
  EC50: 85.2 nM
MetRS (S. aureus)
  IC50: 155 nM

## CC(=O)N(CCNc1nc2nc(F)ccc2[nH]1)Cc1cc(Cl)cc(Cl)c1 [Compound 1897, N-(3,5-dichlorobenzyl)-N-(2-((5-fluoro-1H-imidazo[4,5-b]pyridin-2-yl)amino)ethyl) acetamide]
MetRS (T. brucei)
  IC50: 16 nM
T. brucei; [1]
  EC50: 653 nM
MetRS (S. aureus)
  IC50: 606 nM

## CN(CCN(Cc1cc(Cl)cc(Cl)c1)C(=O)CN)c1nc2nc(Cl)ccc2[nH]1 [Compound 1957, 2-amino-N-[2-({5-chloro-1H-imidazo[4,5-b]pyridin-2-yl}(methyl)amino)ethyl]-N-[(3,5-dichlorophenyl)methyl]acetamide]
MetRS (T. brucei)
  IC50: 11 nM
MetRS (S. aureus)
  IC50: 424 nM

## CC(=O)N(CCCc1nc2ccc(Cl)nc2[nH]1)Cc1cc(Cl)cc(Cl)c1 [Compound 1895, N-(3-(5-chloro-1H-imidazo[4,5-b]pyridin-2-yl)propyl)-N-(3,5-dichlorobenzyl)acetamide]
MetRS (T. brucei)
  IC50: 17 nM
T. brucei; [1]
  EC50: 569 nM
MetRS (S. aureus)
  IC50: 445 nM

## Oc1c(Cl)cc(Cl)cc1CN[C@H]1CCCN(c2nc3nc(Cl)ccc3[nH]2)C1 [Compound 1921]
MetRS (T. brucei)
  IC50: 25 nM
T. brucei; [1]
  EC50: 241 nM
MetRS (S. aureus)
  IC50: 1570 nM

## CC(=O)N(CCN(C)c1nc2nc(F)ccc2[nH]1)Cc1cc(Cl)cc(Cl)c1 [Compound 1914, N-[(3,5-dichlorophenyl)methyl]-N-[2-({5-fluoro-1H-imidazo[4,5-b]pyridin-2-yl}(methyl)amino)ethyl]acetamide]
MetRS (T. brucei)
  IC50: 18 nM
T. brucei; [1]
  EC50: 252 nM
MetRS (S. aureus)
  IC50: 303 nM

## COC(=O)N(CCN(C)c1nc2nc(Cl)ccc2[nH]1)Cc1cc(Cl)cc(Cl)c1 [Compound 1963, methyl 3,5-dichlorobenzyl2-(5-chloro-N-methyl-1H-imidazo[4,5-b]pyridin-2-ylamino)ethylcarbamate]
MetRS (T. brucei)
  IC50: 21 nM
T. brucei; [1]
  EC50: 97.4 nM
MetRS (S. aureus)
  IC50: 348 nM

## CCC(=O)N(CCN(C)c1nc2nc(Cl)ccc2[nH]1)Cc1cc(Cl)cc(Cl)c1 [Compound 1942, N-(3,5-dichlorobenzyl)-N-(2-(5-chloro-N-methyl-1H-imidazo[4,5-b]pyridin-2-ylamino)ethyl)propionamide]
MetRS (T. brucei)
  IC50: 20 nM
T. brucei; [1]
  EC50: 145 nM
MetRS (S. aureus)
  IC50: 104 nM

## Clc1cc(Cl)cc(CNc2cccc(-c3nc4ccc(Cl)nc4[nH]3)c2)c1 [Compound 1966, 3-{5-chloro-3H-imidazo[4,5-b]pyridin-2-yl}-N-[(3,5-dichlorophenyl)methyl]amine]
MetRS (T. brucei)
  IC50: 72 nM
T. brucei; [1]
  EC50: 1030 nM
MetRS (S. aureus)
  IC50: 5730 nM

## O=c1[nH]c(Cc2ccc(Cl)cc2Cl)cn1Cc1nc2ccc(F)nc2[nH]1 [Compound 1962, 5-(2,4-dichlorobenzyl)-3-((5-fluoro-3H-imidazo[4,5-b]pyridin-2-yl)methyl)-1H-imidazol-2(3H)-one]
MetRS (T. brucei)
  IC50: 19 nM
T. brucei; [1]
  EC50: 12.9 nM
MetRS (S. aureus)
  IC50: 17 nM

## CN(CCN(Cc1cc(Cl)cc(Cl)c1)C(=O)CO)c1nc2ccc(Cl)nc2[nH]1 [Compound 1971, N-(3,5-dichlorobenzyl)-N-(2-(5-chloro-N-methyl-1H-imidazo[4,5-b]pyridin-2-ylamino)ethyl)-2-hydroxyacetamide]
MetRS (T. brucei)
  IC50: 13 nM
T. brucei; [1]
  EC50: 62.3 nM
T. brucei; read-out: B) T. brucei EC50
  EC50: 40.4 nM
MetRS (S. aureus)
  IC50: 85 nM

## O=C(CCOc1ccc(Cl)cc1Cl)NCc1nc2ccc(F)nc2[nH]1 [Compound 1705, 3-(2,4-dichlorophenoxy)-N-({5-fluoro-3H-imidazo[4,5-b]pyridin-2-yl}methyl)propanamide]
MetRS (T. brucei)
  IC50: 100 nM
T. brucei; [1]
  EC50: 8840 nM
MetRS (S. aureus)
  IC50: 1690 nM

## CN(CCN(Cc1cc(Cl)cc(Cl)c1)C(N)=O)c1nc2ccc(Cl)nc2[nH]1 [Compound 1972, 1-(3,5-dichlorobenzyl)-1-(2-(5-chloro-N-methyl-1H-imidazo[4,5-b]pyridin-2-ylamino)ethyl)urea]
MetRS (T. brucei)
  IC50: 27 nM
MetRS (S. aureus)
  IC50: 140 nM

## Clc1cc(Cl)cc(NC[C@@H]2CCCN(c3nc4nc(Cl)ccc4[nH]3)C2)c1 [Compound 1923, (S)-3,5-dichloro-N-((1-(5-chloro-1H-imidazo[4,5-b]pyridin-2-yl)piperidin-3-yl)methyl)aniline]
MetRS (T. brucei)
  IC50: 32 nM
T. brucei; [1]
  EC50: 566 nM
MetRS (S. aureus)
  IC50: 504 nM

## COc1ccc(Oc2ccnc(NCc3nc4ccc(F)nc4[nH]3)c2)c(Cl)c1 [Compound 1960, 4-(2-chloro-4-methoxyphenoxy)-N-({5-fluoro-3H-imidazo[4,5-b]pyridin-2-yl}methyl)pyridin-2-amine]
MetRS (T. brucei)
  IC50: 21 nM
MetRS (S. aureus)
  IC50: 12 nM

## O=C(NCc1nc2cccnc2[nH]1)OCCc1ccc(Cl)cc1Cl [Compound 1706, 2-(2,4-dichlorophenyl)ethyl N-{3H-imidazo[4,5-b]pyridin-2-ylmethyl}carbamate]
MetRS (T. brucei)
  IC50: 38 nM
T. brucei; [1]
  EC50: 2760 nM
MetRS (S. aureus)
  IC50: 83 nM

## Clc1cc(Cl)cc(NCCCNc2nc3ccc(Cl)nc3[nH]2)c1 [Compound 1967]
MetRS (T. brucei)
  IC50: 88 nM
T. brucei; [1]
  EC50: 2300 nM
MetRS (S. aureus)
  IC50: > 1000 nM

## CC(=O)N(CCCNc1nc2ccc(F)nc2[nH]1)Cc1cc(Cl)cc(Cl)c1 [Compound 1959, N-(3,5-dichlorobenzyl)-N-(3-(5-fluoro-3H-imidazo[4,5-b]pyridin-2-ylamino)propyl)acetamide]
MetRS (T. brucei)
  IC50: 16 nM
T. brucei; [1]
  EC50: 39.3 nM
T. brucei; read-out: B) T. brucei EC50
  EC50: 51.1 nM
MetRS (S. aureus)
  IC50: 12 nM

## O=C(CNc1cc(Cl)cc(Cl)c1)NCc1nc2ccc(Cl)nc2[nH]1 [Compound 1990, N-({5-chloro-3H-imidazo[4,5-b]pyridin-2-yl}methyl)-2-[(3,5-dichlorophenyl)amino]acetamide]
MetRS (T. brucei)
  IC50: 17 nM
T. brucei; [1]
  EC50: 2040 nM

## O=C(/C=C\Oc1ccc(Cl)cc1Cl)NCc1nc2ccccc2[nH]1 [Compound 1730, (Z)—N-((1H-benzo[d]imidazol-2-yl)methyl)-3-(2,4-dichlorophenoxy)acrylamide]
MetRS (T. brucei)
  IC50: 142 nM
T. brucei; [1]
  EC50: 723 nM

## Clc1cc(Cl)cc(CNCC2CCN2c2nc3nc(Cl)ccc3[nH]2)c1 (centres unmarked) [Compound 1915, 1-(1-(5-chloro-1H-imidazo[4,5-b]pyridin-2-yl)azetidin-2-yl)-N-(3,5-dichlorobenzyl)methanamine]
MetRS (T. brucei)
  IC50: 170 nM
T. brucei; [1]
  EC50: 3100 nM

## O=C(CCOc1ccc(Cl)cc1Cl)NCc1nc2cccnc2[nH]1 [Compound 1704, 3-(2,4-dichlorophenoxy)-N-{3H-imidazo[4,5-b]pyridin-2-ylmethyl}propanamide]
MetRS (T. brucei)
  IC50: 280 nM
T. brucei; [1]
  EC50: 8610 nM

## CC(=O)N(C1CCNc2c(Cl)cc(Cl)cc21)[C@H]1CCCN(c2nc3nc(Cl)ccc3[nH]2)C1 (some centres unmarked) [Compound 1943]
MetRS (T. brucei)
  IC50: 2130 nM and 3540 nM
T. brucei; [1]
  EC50: 419 nM
T. brucei; read-out: B) T. brucei EC50
  EC50: 389 nM

## CC(=O)N(Cc1cc(Cl)cc(Cl)c1)[C@H]1CCCN(c2nc3nc(F)ccc3[nH]2)C1 [Compound 1901, (S)—N-(3,5-dichlorobenzyl)-N-(1-(5-fluoro-1H-imidazo[4,5-b]pyridin-2-yl)piperidin-3-yl)acetamide]
MetRS (T. brucei)
  IC50: 692 nM
T. brucei; [1]
  EC50: 5100 nM

## Clc1cc(Cl)cc(CNC2CN(c3nc4nc(Cl)c(Br)cc4[nH]3)C2)c1 [Compound 1865, 1-{6-bromo-5-chloro-1H-imidazo[4,5-b]pyridin-2-yl}-N-[(3,5-dichlorophenyl)methyl]azetidin-3-amine]
MetRS (T. brucei)
  IC50: > 10000 nM
T. brucei; [1]
  EC50: 6630 nM

## N[C@H](CC(=O)NCc1nc2ccccc2[nH]1)Cc1ccc(Cl)cc1Cl [Compound 1726, (3S)-3-amino-N-(1H-1,3-benzodiazol-2-ylmethyl)-4-(2,4-dichlorophenyl)butanamide]
MetRS (T. brucei)
  IC50: 2380 nM
T. brucei; [1]
  EC50: 8020 nM

## CC(=O)N(Cc1cc(Cl)cc(Cl)c1)C1CCCC(c2nc3ccccc3[nH]2)C1 (centres unmarked) [Compound 1816, N-(3-(1H-benzo[d]imidazol-2-yl)cyclohexyl)-N-(3,5-dichlorobenzyl) acetamide]
MetRS (T. brucei)
  IC50: > 10000 nM
T. brucei; [1]
  EC50: 8790 nM

## CC(Cc1nc2cc(F)c(Cl)cc2[nH]1)NCc1cc(Cl)cc(Cl)c1 (centres unmarked) [Compound 1824, [1-(6-chloro-5-fluoro-1H-1,3-benzodiazol-2-yl)propan-2-yl][(3,5-dichlorophenyl)methyl]amine]
MetRS (T. brucei)
  IC50: 160 nM
T. brucei; [1]
  EC50: 2240 nM

## O=C(Cc1cc(Cl)cc(Cl)c1)NCc1nc2ccc(Br)cc2[nH]1 [Compound 1873, N-[(6-bromo-1H-1,3-benzodiazol-2-yl)methyl]-2-(3,5-dichlorophenyl)acetamide]
MetRS (T. brucei)
  IC50: 98 nM
T. brucei; [1]
  EC50: 5500 nM

## CC(Cc1nc2c(Cl)cc(Cl)cc2[nH]1)NCc1cc(Cl)cc(Cl)c1 (centres unmarked) [Compound 1823, [1-(4,6-dichloro-1H-1,3-benzodiazol-2-yl)propan-2-yl][(3,5-dichlorophenyl)methyl]amine]
MetRS (T. brucei)
  IC50: 2290 nM
T. brucei; [1]
  EC50: 4560 nM

## O=C(Nc1cccc(-c2nc3ccc(Cl)cc3[nH]2)c1)c1cc(Cl)cc(Cl)c1 [Compound 1953, 3,5-dichloro-N-[3-(6-chloro-1H-1,3-benzodiazol-2-yl)phenyl]benzamide]
MetRS (T. brucei)
  IC50: > 10000 nM
T. brucei; [1]
  EC50: 903 nM
T. brucei; read-out: B) T. brucei EC50
  EC50: 812 nM

## CC(=O)N(Cc1cc(Cl)cc(Cl)c1)C1CCCC(c2nc3cc(F)ccc3[nH]2)C1 (centres unmarked) [Compound 1860, N-(3,5-dichlorobenzyl)-N-(3-(5-fluoro-1H-benzo[d]imidazol-2-yl)cyclohexyl)acetamide]
MetRS (T. brucei)
  IC50: 6900 nM
T. brucei; [1]
  EC50: 8570 nM

## NC(CC(=O)NCc1cc(Cl)cc(Cl)c1)c1nc2ccc(Cl)nc2[nH]1 (centres unmarked) [Compound 1969, 3-amino-3-(5-chloro-3H-imidazo[4,5-b]pyridin-2-yl)-N-(3,5-dichlorobenzyl)propanamide]
MetRS (T. brucei)
  IC50: 782 nM
T. brucei; [1]
  EC50: 7960 nM

## Clc1cc(Cl)cc(CNC2CCCC(c3nc4ccccc4[nH]3)C2)c1 (centres unmarked) [Compound 1815, 3-(1H-benzo[d]imidazol-2-yl)-N-(3,5-dichlorobenzyl)cyclohexanamine]
MetRS (T. brucei)
  IC50: > 10000 nM
T. brucei; [1]
  EC50: 4090 nM
